Test results reported in article PMC5750238 (2018).

Legend:
[1] = test system: Broccoli construct (RNA, aptamer) GGGAGAUGCUCCCAGUUACAUUCGUGUAGCUGGCCGUGCGAGACGGUCGGGUCCAUAGCUAAUUCGUUAGUUAUGUCGAGUAGAGUGUGGGCUCGUACGGGCUGGUGAAGCCUCCACGCCAGCGAGCGUCUCCCGCAUGGCAACGCGACUGAAGGAGGCACGGUCGGCCAUCGGUUUCGACCGGUGGCGGUAGAGCCUUCGGGCUUUACCCGUUGUCAUGC; assay: fluorescence titration of RNA with fluorophore; settings: 125 mM KCl, 1 mM MgCl2; 1x TB assembly buffer; 20 nM RNA; fluorophore 1 nM to 2 µM; apparent
[2] = test system: 2H-AE construct (RNA, other) GGAAUUCAGGAGCUCGGGAGCGUCCACUGCUCCUGAGCGCUCCAGUGGACGGAGCCCUGGUGAAGCCUCCACGCCAGGUCCUGGAUUCCGCAUGUAUCGAGGACUGAAGGAGGCACGGUCCCACGGGCUCCGAGACGUGGAGUCCGUGUCCGCACGUCUCGCGGAUCGAUGCAUGC; assay: fluorescence activation; settings: 125 mM KCl, 1 mM MgCl2; 1x TB assembly buffer; no fluorescence activation
[3] = test system: Mango construct (RNA, aptamer) GGGAGAUCGUCCUAAGCGCUUUCGAGCGUUUAGCCUGGGUCGCGAAGGGACGGUGCGGAGAGGAGAGCGACUCAGGGAUGGUGAAGCCUCCACGCCAUCGACGGUCUCCCGAUACUCAUCGCGACUGAAGGAGGCACGGUCGGCAUUGUACUUCGGUACGAUGCGCAAGCGACUUCGGUCGUUUGCCGAUGGGUAUC; assay: fluorescence activation; settings: 125 mM KCl, 1 mM MgCl2; 1x TB assembly buffer; EC50 given as N/A; titration to 2 µM
[4] = test system: Spinach construct (RNA, aptamer) GGGAGAUGCUCCCAGUUACAUUCGUGUAGCUGGCCGUGCGGUAAGGACGGGUCCCUAGCUAAUUCGUUAGUUAGGUUGAGUAGAGUGUGAGACCGUACGGGCUGGUGAAGCCUCCACGCCAGCGAGCGUCUCCCGCAUGGCAACGCGACUGAAGGAGGCACGGUCGGCCAUCGGUUUCGACCGGUGGCGGUAGAGCCUUCGGGCUUUACCCGUUGUCAUGC; assay: fluorescence titration of RNA with fluorophore; settings: 125 mM KCl, 1 mM MgCl2, 1x TB assembly buffer, 20 nM RNA, apparent
[5] = test system: Mango construct (RNA, aptamer) GGGAGAUCGUCCUAAGCGCUUUCGAGCGUUUAGCCUGGGUCGCGAAGGGACGGUGCGGAGAGGAGAGCGACUCAGGGAUGGUGAAGCCUCCACGCCAUCGACGGUCUCCCGAUACUCAUCGCGACUGAAGGAGGCACGGUCGGCAUUGUACUUCGGUACGAUGCGCAAGCGACUUCGGUCGUUUGCCGAUGGGUAUC; assay: fluorescence titration of RNA with fluorophore; settings: 125 mM KCl, 1 mM MgCl2; 1x TB assembly buffer; 20 nM RNA; fluorophore 1 nM to 2 µM; apparent

Row | SMILES | EC50 [1] | binding [2] | binding [3] | EC50 ([4]; fluorophore 1 nM to 2 µM) | EC50 ([4]; fluorophore 1 nM to 2 µM (value above range)) | EC50 [5]
1 | CC1=N/C(=C\c2cc(F)c(O)c(F)c2)C(=O)N1CC(F)(F)F | 598.9 nM | no | no | 337.5 nM |  | 
2 | CN1C=CC(=CC=Cc2oc3ccccc3[n+]2CC(=O)NCCOCCOCCOCCNC(=O)CCCC[C@@H]2SC[C@@H]3NC(=O)N[C@@H]32)c2ccccc21 | 1700 nM |  |  |  | 3920 nM | 25.6 nM
